Results reported in patent publication US8609602B2, “Cleaning solution” (priority 2010, dated 2013).
Like-named read-outs stand apart in the source and are kept apart here.

Experiments:
[1] = format: physicochemical; conditions: for Solubility of added stearic acid in detergent solution (in words): stearic acid 10-20 mg/ml, overnight at 40° C.
Protocol: Detergents classified as ionic and non-ionic were tested, as well as carbohydrate and polyethylene glycol based non-ionic detergents.

[2] = MSDS / known values; cited from earlier work
[3] = 6.7% TRIZMA in 67% aqueous 2-propanol; (10% w/v)
Protocol: Different detergent or detergent/base stock solutions were mixed in culture tubes, vortexed for 1 minute, and allowed to completely dissolve over an additional 30 minutes. The stock solutions were either used undiluted or diluted with additional water or alcohol in predetermined ratios. Diluted solutions were again mixed by vortexing for 1 minute and then allowing the solution to sit for 30 minutes.
A representative aliphatic acid, the fatty acid stearic acid, was added to the tube in a predetermined quantity between 10 mg/ml and 20 mg/ml. […] Solutions were then cooled to room temperature (RT) and after 6 hours, they were evaluated again for evidence of precipitation.
The following experiment is similar to Experiment 1, except that addition of a non-toxic buffer and/or a short-chained alcohol was investigated to attempt to improve upon the above results. Various bases and alcohols were tested. […] A representative non-toxic base, TRIZMA® (SIGMA-ALDRICH®, St. Louis, Mo.), was first tested (also known as TRIS, and Tris(hydroxymethyl)aminomethane). […] For this test, the amount of contaminating aliphatic acid, stearic acid, added to the solution was increased to 100 mg/ml.

Compound | Parts surfactant needed to dissolve stearic acid ([1]; aqueous detergent solution) | Solubility of added stearic acid in detergent solution (in words) [1] | Solubility of added stearic acid in detergent solution (in words) ([1]; listed as n-dodecyl-N,N-dimethylamine-N-oxide) | LD50 [2] [mg/kg] | Stearic acid completely solubilized by TRIZMA base without detergent [3] [mg/mL]
CCCCCCCCCCCC[N+](C)(C)[O-] [C-12 dimethyl amine oxide, n-dodecyl-N,N-dimethylamine-N-oxide] | 4 parts surfactant could dissolve 1 part stearic acid | Complete solubility at all concentrations of added stearic acid | quantitatively facilitated the solubilization | 5000 | 
Tris(hydroxymethyl)aminomethane [TRIZMA base] |  |  |  |  | 100
